According to patent US8729131B2, “Agomelatine hydrochloride hydrate and preparation thereof” (Les Laboratoires Servier, priority 2010, dated 2014):
Structures can show the parent of a compound that is named as a salt. Blank lines part the entries; values can stand above or below the molecule they belong to.

Legend:
Type in all cases: physicochemical
[1] = Water solubility, HPLC external standard method
Method: Using external standard method, the product of Example 1 was tested with HPLC, compared with agomelatine crystalline form II.

[2] = Stability test (Chinese Pharmacopoeia): accelerated test, closed container for 6 months
Method: (§1) The method for stability test as described in Chinese Pharmacopoeia was used in this test. • 1) Affecting factors test (in open container for 10 days): high temperature (60° C.), photostability under strong light (45001×), high humidity (92.5% RH at 25° C.) • 2) Accelerated test (in closed container for 6 months): at 40° C., humidity: 75% RH • 3) Long-term test (in closed container for 9 months): at 25° C., humidity: 60% RH

[3] = Stability test (Chinese Pharmacopoeia): long-term test, closed container for 9 months
Method: as §1

[4] = Stability test (Chinese Pharmacopoeia): affecting factors test, open container for 10 days; conditions: open container 10 days; for Water: initial 6.10%; for C1: initial 11.86%; for purity: initial purity 99.72%
Method: as §1

[5] = Stability test: product placed in an incubator at 40° C. for 30 days, determined with HPLC; conditions: 40° C. incubator
Method: Chromatographic conditions: C18 column; mobile phase: 10 mmol/L phosphate buffer (adjusted to pH 7.0 with NaOH): acetonitrile=2:7 (v/v); column temperature: 40° C.; detection wavelength: 220 nm; internal standard method was used on the products of Examples 1 and 2.
Solutions of the products at 1 mg/mL were prepared with the mobile phase. 10 μL of each solution was injected into the liquid chromatograph system and chromatograms were recorded. The results of the purity are shown in Examples 1 and 2.
Some of the product of Example 1 was placed in an incubator at 40° C. for 30 days to determine its stability with HPLC.

[6] = High humidity (92.5% RH at 25° C.)

Agomelatine content ([1]; In 0.1 N HCl): 0.30 mg/mL
Agomelatine content ([1]; In pH 7.0 buffer): 0.25 mg/mL
Agomelatine content ([1]; In water): 0.26 mg/mL
Structure (SMILES): COc1ccc2cccc(CCNC(C)=O)c2c1 [AG crystalline form II, N-[2-(7-methoxy-1-naphthyl)pethyl]-acetamide, reference compound]

Water ([2]; 40° C., 75% RH, closed container 6 months, initial 6.10%): 6.02%
C1 ([2]; 40° C., 75% RH, closed container 6 months, initial 11.86%): 11.65%
purity ([2]; 40° C., 75% RH, closed container 6 months, initial purity 99.72%): 99.64%
stability (in words) ([2]; accelerated test): stable
Water ([3]; 25° C., 60% RH, closed container 9 months, initial 6.10%): 6.00%
C1 ([3]; 25° C., 60% RH, closed container 9 months, initial 11.86%): 11.53%
purity ([3]; 25° C., 60% RH, closed container 9 months, initial purity 99.72%): 99.74%
stability (in words) ([3]; long-term test): stable
Agomelatine content ([1]; In 0.1 N HCl, hydrochloride hydrate): 0.40 mg/mL
Agomelatine content ([1]; In pH 7.0 buffer, hydrochloride hydrate): 0.30 mg/mL
Agomelatine content ([1]; In water, hydrochloride hydrate): 0.30 mg/mL
solubility compared with agomelatine per se (in words) ([1]; in water, in 0.1N HCl, or in pH 7.0 buffer): better solubility
Water [4, 6]: 6.03%
C1 [4, 6]: 11.63%
purity [4, 6]: 99.73%
Water ([4]; High temperature (60° C.)): 1.00%
C1 ([4]; High temperature (60° C.)): 1.75%
purity ([4]; High temperature (60° C.)): 99.51%
Water ([4]; Strong light (45001×)): 5.95%
C1 ([4]; Strong light (45001×)): 11.48%
purity ([4]; Strong light (45001×)): 99.67%
stability with HPLC ([5]; Day 0): 99.6%
stability with HPLC ([5]; Day 5): 99.5%
stability with HPLC ([5]; Day 10): 99.5%
stability with HPLC ([5]; Day 30): 99.5%
Structure (SMILES): COc1ccc2cccc(CCNC(C)=O)c2c1 [AG · HCl · H2O, agomelatine hydrochloride hydrate]
